Data taken from patent US10292970B2, “Heteroaryl-substituted imidazo[1,2-A]pyridines and their use” (BAYER PHARMA AKTIENGESELLSCHAFT, priority 2014, dated 2019).
Where a name gives a salt, the structure may show the parent alone.

The molecules below were run on recombinant guanylate cyclase reporter cell line (assay: Effect on a recombinant guanylate cyclase reporter cell line). Settings: in some cases mean values from individual determinations, read-out: MEC (minimum effective concentration).
Format: cell-based
Description: B-2. Effect on a Recombinant Guanylate Cyclase Reporter Cell Line
The cellular activity of the compounds according to the invention is determined using a recombinant guanylate cyclase reporter cell line, as described in F. Wunder et al., Anal. Biochem. 339, 104-112 (2005).
Representative MEC values (MEC=minimum effective concentration) for the compounds of the invention are shown in the table below (in some cases as mean values from individual determinations): […]

| SMILES | minimal effective concentration [µM] |
| --- | --- |
| Cc1cc(OCc2c(F)cccc2F)c2nc(C)c(-c3nc(N)nc(N(C)C)n3)n2c1 [Example 8, 6-{8-[(2,6-Difluorobenzyl)oxy]-2,6-dimethylimidazo[1,2-a]pyridin-3-yl}-N, N-dimethyl-1,3,5-triazine-2,4-diamine] | 0.3 |
| Cc1nc2c(OCc3c(F)cccc3F)cccn2c1-c1nc(Cl)nc(NCC(C)(C)N)n1 [Example 11, N′-(4-Chloro-6-{8-[(2,6-difluorobenzyl)oxy]-2-methylimidazo[1,2-a]pyridin-3-yl}-1,3,5-triazin-2-yl)-2-methylpropane-1,2-diamine] | 0.3 |
| Cc1nc2c(OCc3c(F)cccc3F)cccn2c1-c1ccc(NCc2ccccc2)nc1 [Example 1, N-Benzyl-5-{8-[(2,6-difluorobenzyl)oxy]-2-methylimidazo[1,2-a]pyridin-3-yl}pyridine-2-amine] | 0.1 |
| Cc1nc2c(OCc3c(F)cccc3F)cccn2c1-c1ncnc(NCC(C)(N)CCC(F)(F)F)n1 (single isomer, unassigned; enantiomer b) [Example 12, ent-N^1-(4-{8-[(2,6-Difluorobenzyl)oxy]-2-methylimidazo[1,2-a]pyridin-3-yl}-1,3,5-triazin-2-yl)-5,5,5-trifluoro-2-methylpentane-1,2-diamine (enantiomer B)] | 1 |
| Cc1cc(OCc2c(F)cccc2F)c2nc(C)c(-c3cc(NCC(C)(C)N)ncc3F)n2c1 [Example 10, N′-(4-{8-[(2,6-Difluorobenzyl)oxy]-2,6-dimethylimidazo[1,2-a]pyridin-3-yl}-5-fluoropyridin-2-yl)-2-methylpropane-1,2-diamine] | 0.1 |
| Cc1cc(OCc2c(F)cccc2F)c2nc(C)c(-c3nc(N)nc(N)n3)n2c1 [Example 7, 6-{8-[(2,6-Difluorobenzyl)oxy]-2,6-dimethylimidazo[1,2-a]pyridin-3-yl}-1,3,5-triazine-2,4-diamine] | 0.3 |
| CC(=O)Nc1cccc(-c2c(C)nc3c(OCC4CCCCC4)cccn23)c1 [Example 19, N-{3-[8-(Cyclohexylmethoxy)-2-methylimidazo[1,2-a]pyridin-3-yl]phenyl}acetamide] | 0.2 |
| Cc1nc2c(OCc3c(F)cccc3F)cccn2c1-c1ccc(Nc2ccccc2)nc1 [Example 5] | 3 |
| Cc1cc(OCc2c(F)ccc(F)c2F)c2nc(C)c(-c3nccc(N4CCCC4)n3)n2c1 [Example 16, 2,6-Dimethyl-3-[4-(pyrrolidin-1-yl)pyrimidin-2-yl]-8-[(2,3,6-trifluorobenzyl)oxy]imidazo[1,2-a]pyridine trifluoroacetate] | 3 |
| CCN(C)c1ccc(-c2c(C)nc3c(OCc4c(F)cccc4F)cccn23)cn1 [Example 3] | 0.2 |
| Cc1cc(OCc2c(F)cccc2F)c2nc(C)c(-c3cccc(N4CCCC4)c3)n2c1 [Example 14, 8-[(2,6-Difluorobenzyl)oxy]-2,6-dimethyl-3-[3-(pyrrolidin-1-yl)phenyl]imidazo[1,2-a]pyridine] | 6.5 |
| Cc1cc(OCc2c(F)cccc2F)c2nc(C)c(-c3ccnc(N4CCNCC4)c3)n2c1 [Example 13, 8-[(2,6-Difluorobenzyl)oxy]-2,6-dimethyl-3-[2-(piperazin-1-yl)pyridin-4-yl]imidazo[1,2-a]pyridine] | 0.2 |
| Cc1nc2c(OCc3c(F)cccc3F)cccn2c1-c1ccc(N2CC(C)OC(C)C2)nc1 (stereo not drawn) [Example 4] | 1 |
| Cc1nc2c(OCc3c(F)cccc3F)cccn2c1-c1cnc(N2CCN(C)CC2)nc1 [Example 6, 8-[(2,6-Difluorobenzyl)oxy]-2-methyl-3-[2-(4-methylpiperazin-1-yl)pyrimidin-5-yl]imidazo[1,2-a]pyridine] | 10 |
| CC(=O)Nc1cccc(-c2c(C)nc3c(OCc4ncccc4F)cc(Cl)cn23)c1 [Example 20, N-(3-{6-Chloro-8-[(3-fluoropyridin-2-yl)methoxy]-2-methylimidazo[1,2-a]pyridin-3-yl}phenyl)acetamide] | 0.3 |
| COCCNc1ccc(-c2c(C)nc3c(OCc4c(F)cccc4F)cccn23)cn1 [Example 2] | 0.1 |
| CCCNc1nc(N)nc(-c2c(C)nc3c(OCc4c(F)cccc4F)cc(C)cn23)n1 [Example 9, 6-{8-[(2,6-Difluorobenzyl)oxy]-2,6-dimethylimidazo[1,2-a]pyridin-3-yl}-N-propyl-1,3,5-triazine-2,4-diamine] | 0.3 |
| CC(=O)Nc1cccc(-c2c(C)nc3c(OCc4c(F)cccc4F)cc(C)cn23)c1 [Example 15, N-(3-{8-[(2,6-Difluorobenzyl)oxy]-2,6-dimethylimidazo[1,2-a]pyridin-3-yl}phenyl)acetamide] | 0.02 |
